Assay results taken from ChEMBL document CHEMBL3992491, “Discovery, structure-activity relationship studies, and anti-nociceptive effects of N-(1,2,3,4-tetrahydro-1-isoquinolinylmethyl)benzamides as novel opioid receptor agonists” (Eur J Med Chem, 2017).
Active and inactive are the calls of the source. The calls are words filed in the database; no cut-off is given here.

Tests used:
[1] = target: T1, Kappa-type opioid receptor (Homo sapiens, UniProt P41145); experiment: Agonist activity at human KOR expressed in HEK293 cells assessed as inhibition of forskolin-induced adenylyl cyclase-mediated cAMP accumulation after 30 mins by HTRF assay; type: functional, cell-based
[2] = target: Delta-type opioid receptor (Homo sapiens, UniProt P41143); experiment: Agonist activity at human DOR expressed in HEK293 cells assessed as inhibition of forskolin-induced adenylyl cyclase-mediated cAMP accumulation after 30 mins by HTRF assay; type: functional, cell-based
Mu-type opioid receptor [3] = target: T2, Mu-type opioid receptor (Homo sapiens, UniProt P35372); experiment: Displacement of [3H]naloxone from recombinant human MOR expressed in HEK cell membranes incubated for 60 mins
Mu-type opioid receptor [4] = target: T2, Mu-type opioid receptor; experiment: Agonist activity at human MOR expressed in HEK293 cells assessed as inhibition of forskolin-induced adenylyl cyclase-mediated cAMP accumulation after 30 mins by HTRF assay; type: functional, cell-based
[5] = Ratio of drug level in brain to plasma in […] mouse at 3 mg/kg, iv measured after 0.8 hrs; type: ADME, organism-based; settings: read-out: BPR
[6] = Drug uptake in […] mouse brain at 3 mg/kg, iv measured after 0.8 hrs by LC-MS/MS analysis; type: ADME, organism-based; settings: read-out: Drug uptake
[7] = Drug uptake in […] mouse plasma at 3 mg/kg, iv measured after 0.8 hrs by LC-MS/MS analysis; type: ADME, organism-based
Mu-type opioid receptor [8] = target: T2, Mu-type opioid receptor; experiment: Agonist activity at myc-tagged MOR (unknown origin) expressed in mouse AtT-20 cells harboring GIRK1/GIRK2 channels assessed as stimulation of membrane potential hyperpolarization at 1 uM by FLIPR assay; type: cell-based
Mu-type opioid receptor [9] = target: T2, Mu-type opioid receptor; experiment: Agonist activity at myc-tagged MOR (unknown origin) expressed in mouse AtT-20 cells harboring GIRK1/GIRK2 channels assessed as membrane potential hyperpolarization at 1 uM in presence of naloxone by FLIPR membrane potential; type: cell-based
Mus musculus [10] = experiment: Antinociceptive activity in B6 mouse assessed as AUC of thermal withdrawal effect at 3 mg/kg, iv measured at every 10 mins for 1 hr by tail flick assay; type: functional, organism-based
Mus musculus [11] = experiment: Antinociceptive activity in iv dosed B6 mouse assessed as increase in tail flick latency at 3 mg/kg, iv measured at every 10 mins for 1 hr in presence of opioid antagonist naloxone; type: functional, organism-based
Mus musculus [12] = experiment: Antinociceptive activity in iv dosed B6 mouse assessed as increase in tail flick latency at 3 mg/kg, iv measured at every 10 mins for 1 hr; type: functional
[13] = target: T1, Kappa-type opioid receptor; experiment: Agonist activity at human KOR expressed in HEK293 cells assessed as inhibition of forskolin-induced adenylyl cyclase-mediated cAMP accumulation at 1 uM after 30 mins in presence of KOR antagonist nor-binaltorphimine by HTRF assay; type: functional, cell-based

Sequence of Delta-type opioid receptor (P41143 whole entry): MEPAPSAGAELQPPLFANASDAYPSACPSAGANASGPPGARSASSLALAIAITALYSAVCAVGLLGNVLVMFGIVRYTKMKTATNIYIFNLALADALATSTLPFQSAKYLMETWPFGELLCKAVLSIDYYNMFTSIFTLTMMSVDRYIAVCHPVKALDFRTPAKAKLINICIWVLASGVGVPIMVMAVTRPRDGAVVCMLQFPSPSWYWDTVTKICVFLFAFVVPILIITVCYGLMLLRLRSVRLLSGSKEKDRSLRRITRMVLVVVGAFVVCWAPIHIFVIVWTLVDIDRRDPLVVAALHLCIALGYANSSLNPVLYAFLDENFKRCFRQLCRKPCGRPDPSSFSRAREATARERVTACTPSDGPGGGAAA
T2 sequence (P35372 whole entry): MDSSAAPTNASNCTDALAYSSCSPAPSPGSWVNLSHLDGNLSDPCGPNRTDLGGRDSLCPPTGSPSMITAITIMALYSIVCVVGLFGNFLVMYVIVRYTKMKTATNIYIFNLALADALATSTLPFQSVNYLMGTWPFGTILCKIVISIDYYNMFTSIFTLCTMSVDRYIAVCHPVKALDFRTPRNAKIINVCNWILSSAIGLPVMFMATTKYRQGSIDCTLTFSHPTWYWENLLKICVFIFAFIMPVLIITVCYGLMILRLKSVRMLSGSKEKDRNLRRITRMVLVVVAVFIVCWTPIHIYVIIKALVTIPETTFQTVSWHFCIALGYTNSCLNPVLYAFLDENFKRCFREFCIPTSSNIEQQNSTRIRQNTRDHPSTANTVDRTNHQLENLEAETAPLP
T1 sequence (P41145 whole entry): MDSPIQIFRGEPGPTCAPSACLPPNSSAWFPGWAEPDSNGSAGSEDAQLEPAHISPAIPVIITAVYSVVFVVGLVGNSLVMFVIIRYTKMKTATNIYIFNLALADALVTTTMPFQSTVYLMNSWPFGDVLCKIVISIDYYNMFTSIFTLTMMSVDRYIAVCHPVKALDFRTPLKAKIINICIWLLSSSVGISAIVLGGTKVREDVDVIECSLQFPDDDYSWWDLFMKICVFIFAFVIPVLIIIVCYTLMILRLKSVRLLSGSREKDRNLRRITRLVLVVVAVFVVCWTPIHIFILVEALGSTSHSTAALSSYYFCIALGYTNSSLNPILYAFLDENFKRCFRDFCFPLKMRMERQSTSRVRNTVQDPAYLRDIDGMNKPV

O=C(NCC1NCCc2ccccc21)c1ccc(Cl)c(Cl)c1 (configuration not stated)
IC50 [1]: 810 nM
Imax [1]: 27.5%
IC50 ([2]; hek293): Not Active
Ki (Mu-type opioid receptor [3]): 54.3 nM
IC50 (Mu-type opioid receptor [4]): 230 nM

O=C(NCC1c2ccccc2CCN1S(=O)(=O)c1ccc(Br)cc1OC(F)(F)F)C1CCCCC1 (configuration not stated)
Kp at 0.8 h [5]: 1.1
concentration at 0.8 h [6]: 1440 ng/g
concentration at 0.8 h [7]: 1290 ng/mL

Cc1ccc(C(=O)NCC2c3ccccc3CCN2C)cc1C (configuration not stated)
Kp at 0.8 h [5]: 5.1
Activity (Mu-type opioid receptor [8]): 20%
IC50 [1]: 80 nM
Imax [1]: 34.6%
concentration at 0.8 h [6]: 7420 ng/g
IC50 ([2]; hek293): Not Active
Activity (Mu-type opioid receptor [9]): inactive
AUC (Mus musculus [10]): 268 min.sec
Ki (Mu-type opioid receptor [3]): 30.8 nM
concentration at 0.8 h [7]: 1460 ng/mL
Activity (Mus musculus [11]): inactive
IC50 (Mu-type opioid receptor [4]): 80 nM
Imax (Mu-type opioid receptor [4]): 69.3%

Cc1ccc(C(=O)NCC2c3ccccc3CCN2C)cc1 (configuration not stated)
IC50 [1]: 140 nM
Imax [1]: 27.1%
IC50 ([2]; hek293): Not Active
Ki (Mu-type opioid receptor [3]): 5.28 nM
IC50 (Mu-type opioid receptor [4]): 650 nM
Imax (Mu-type opioid receptor [4]): 72.4%

C[C@@H](NC(=O)[C@@H](N)Cc1ccc(O)cc1)C(=O)NCC(=O)N(C)[C@@H](Cc1ccccc1)C(=O)NCCO
Imax (Mu-type opioid receptor [4]): 82.4%

O=C(NCC1NCCc2ccccc21)c1ccc(F)cc1 (configuration not stated)
IC50 [1]: 18600 nM
Imax [1]: 38.9%
Imax [2]: 22%
IC50 ([2]; read-out: IC50): 40 nM
IC50 (Mu-type opioid receptor [4]): 830 nM

CCCCN1CCc2ccccc2C1CNC(=O)c1ccc(C)cc1 (configuration not stated)
IC50 [1]: 780 nM
Imax [1]: 24.1%
IC50 ([2]; hek293): Not Active
IC50 (Mu-type opioid receptor [4]): 1330 nM
Imax (Mu-type opioid receptor [4]): 69.3%

O=C(NCC1NCCc2ccccc21)c1cccc(Cl)c1 (configuration not stated)
IC50 [1]: 1120 nM
Imax [1]: 26.9%
Imax [2]: 21.1%
IC50 ([2]; read-out: IC50): 170 nM
IC50 (Mu-type opioid receptor [4]): 2030 nM
Imax (Mu-type opioid receptor [4]): 78.2%

COc1ccc(C(=O)NCC2NCCc3ccccc32)cc1 (configuration not stated)
IC50 [1]: 50 nM
Imax [1]: 21.8%
IC50 ([2]; hek293): Not Active
IC50 (Mu-type opioid receptor [4]): 1580 nM

Cc1cccc(C(=O)NCC2NCCc3ccccc32)c1 (configuration not stated)
IC50 [1]: 140 nM
Imax [1]: 26.6%
IC50 ([2]; hek293): Not Active
IC50 (Mu-type opioid receptor [4]): 1270 nM
Imax (Mu-type opioid receptor [4]): 68.3%

Cc1ccc(C(=O)NCC2NCCc3ccccc32)cc1C (configuration not stated)
IC50 [1]: 8930 nM
Imax [1]: 27%
IC50 ([2]; hek293): Not Active
Ki (Mu-type opioid receptor [3]): 36.4 nM
IC50 (Mu-type opioid receptor [4]): 290 nM

Cc1ccc(C(=O)NCC2c3ccccc3CCN2CCCl)cc1 (configuration not stated)
IC50 [1]: 2940 nM
Imax [1]: 30%
IC50 ([2]; hek293): Not Active
IC50 (Mu-type opioid receptor [4]): 200 nM
Imax (Mu-type opioid receptor [4]): 67.8%

CCc1ccc(C(=O)NCC2c3ccccc3CCN2C)cc1 (configuration not stated)
IC50 [1]: 490 nM
Imax [1]: 26.3%
Imax [2]: 22.1%
IC50 ([2]; read-out: IC50): 190 nM
Ki (Mu-type opioid receptor [3]): 2.27 nM
IC50 (Mu-type opioid receptor [4]): 3280 nM
Imax (Mu-type opioid receptor [4]): 61.9%

Cc1ccc(C(=O)NCC2NCCc3ccccc32)cc1 (configuration not stated)
Ki (Mu-type opioid receptor [3]): 6.47 nM

O=C(NCC1NCCc2ccccc21)c1ccc(Cl)cc1 (configuration not stated)
IC50 [1]: 90 nM
Imax [1]: 35.1%
Imax [2]: 24.1%
IC50 ([2]; read-out: IC50): 4180 nM
IC50 (Mu-type opioid receptor [4]): 220 nM

CN1CCc2ccccc2C1CNC(=O)c1ccc(Cl)c(Cl)c1 (configuration not stated)
Kp at 0.8 h [5]: 4.5
Activity (Mu-type opioid receptor [8]): 20%
IC50 [1]: 440 nM
Imax [1]: 28.3%
concentration at 0.8 h [6]: 11700 ng/g
ED50 (Mus musculus [12]): 1.06 mg/kg
IC50 ([2]; hek293): Not Active
Activity (Mu-type opioid receptor [9]): inactive
Activity [13]: inactive
AUC (Mus musculus [10]): 371 min.sec
Ki (Mu-type opioid receptor [3]): 6.91 nM
concentration at 0.8 h [7]: 2610 ng/mL
Activity (Mus musculus [11]): inactive
IC50 (Mu-type opioid receptor [4]): 50 nM
Imax (Mu-type opioid receptor [4]): 69.5%

CCc1ccc(C(=O)NCC2NCCc3ccccc32)cc1 (configuration not stated)
IC50 [1]: 570 nM
Imax [1]: 29%
IC50 ([2]; hek293): Not Active
Ki (Mu-type opioid receptor [3]): 4.65 nM
IC50 (Mu-type opioid receptor [4]): 310 nM
Imax (Mu-type opioid receptor [4]): 63.9%

O=C(NCC1NCCc2ccccc21)c1ccc(OC(F)(F)F)cc1 (configuration not stated)
IC50 [1]: 260 nM
Imax [1]: 38.2%
Imax [2]: 22.7%
IC50 ([2]; read-out: IC50): 40 nM
IC50 (Mu-type opioid receptor [4]): 1220 nM
